Assay in all cases: NCI-60 cell line screen, 48 h
For assay [1], the system named is MDA-N.
Assay [2] concerns NCI-H460 lung.
The subject of assay [3] is MDA-MB-435.
For assay [4], the system named is OVCAR-3 ovarian.
Assay [5] relates to A498 renal.
Assay [6] has as its system NCI-H23 lung.
Assay [7] concerns MCF7 breast.
In assay [8] the test system is SW-620 colon.
Assay [9] concerns CAKI-1 renal.
Assay [10] deals with A549 NSCLC.
Assay [11] relates to MOLT-4 leukemia.

TGI and GI50 data for 28 compounds are collected here from PubChem BioAssay (NCI).

Each structure is given as a SMILES string.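 These data come from cells grown in 96-well plates and exposed to compound for 48 hours at five concentrations. The concentration for 50% growth inhibition is given as GI50. TGI is the concentration that stops growth completely.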 Bounds are passed on as bounds.

As for `COc1cc(/C=N\N(C)C)cc(/C=N/N(C)C)c1O`, the TGI in assay [1] is more than 100 µM; in assay [2], more than 100 µM; in [3], more than 100 µM; in assay [4], 53.4 µM; in assay [5], more than 100 µM; in assay [6] it was more than 100 µM. For the same compound, the TGI was more than 100 µM in assay [7], more than 100 µM in [8], 52.1 µM in [9] and more than 100 µM in [10].

Take `Cc1ccc([N+](=O)[O-])cc1S(=O)(=O)Nc1ccc(C2=NN(c3ccc([N+](=O)[O-])cc3[N+](=O)[O-])C(c3cccs3)C2)cc1` (configuration not stated): the TGI in [1] came out at 31.4 µM; in [3], 51.4 µM; in assay [4], 34.4 µM; in assay [11] it was 53.3 µM; in assay [6] it was 44.1 µM; in [7], 80.1 µM. Further, the TGI in assay [8], in assay [9] and in assay [10] was more than 100 µM in each case.

For the compound `CC(=O)c1sc2c(c1OC(=O)c1ccco1)c(=O)n(-c1ccccc1)c(=S)n2-c1ccccc1`, the TGI was 82.6 µM in assay [1]; more than 100 µM in [2]; 61.7 µM in [3]; more than 100 µM in assay [4]; 53.8 µM in assay [11]; 73.8 µM in [6]. Besides, the TGI in [7] was 55.4 µM; in assay [8], more than 100 µM; in [9], more than 100 µM; in assay [10] it was more than 100 µM.

As to `O=P1(O)c2ccccc2CCc2ccccc21`, the TGI in [1], in assay [3], in assay [4], in assay [11], in assay [6] and in assay [7] was more than 100 µM in each case. Besides, the TGI in assay [8], in assay [9] and in [10] was more than 100 µM throughout.

With `OC1(c2ccccc2)C2CCN(CC2)C1CN1CCOCC1` (configuration not stated), the TGI in [2], in assay [3], in assay [4], in assay [11], in assay [5] and in assay [6] was more than 100 µM in each case. Besides, the TGI in assay [7], in assay [8], in assay [9] and in assay [10] was more than 100 µM each time.

As for `COc1ccc(/C=C2\CCC(C)C3C2=NN(c2ccccc2)C3c2ccc(OC)c(OC)c2)cc1OC` (configuration not stated), the TGI in [1] was 29.2 µM; in assay [3] it was more than 100 µM; in assay [4], more than 100 µM; in assay [11] it was 11 µM; in [5] it was 12.3 µM; in assay [6], 16.9 µM. For the same compound, the TGI in [7] was 21.8 µM; in assay [8], more than 100 µM; in assay [9] it was 15.6 µM.

For `O=C(O)CCCn1nnc2c(=O)[nH][nH]c(=O)c21`, the TGI in assay [1], in [2], in assay [3], in [4], in assay [11] and in assay [6] was more than 100 µM each time. Further, the TGI in [7], in [9] and in assay [10] was more than 100 µM throughout.

Turning to `[Cl-].[Rh+3].c1cnc2c(c1)ccc1cccnc12.c1cnc2c(c1)ccc1cccnc12.c1cnc2c(c1)ccc1cccnc12`, the TGI in assay [2], in assay [4], in assay [11], in assay [6], in assay [8] and in assay [10] was more than 100 µM each time.

In the case of `O=C(N/N=C/C=C/c1ccccc1)[C@H](O)[C@@H](O)C(=O)N/N=C/C=C/c1ccccc1`, the TGI in [2], in assay [11], in [5], in [6], in assay [8] and in [10] was more than 100 µM each time.

In the case of `OCCCNc1nc(=S)[nH]c2[nH]ncc12`, the GI50 in assay [2] was 30.5 µM; in [3] it was 45.5 µM; in assay [4], 31.4 µM; in assay [5] it was 13.3 µM; in [6] it was 51.7 µM; in assay [7], 29.8 µM. In addition, the GI50 in [8] is 44.3 µM; in assay [9], 43.3 µM; in assay [10] it was 44.7 µM. Further, the TGI in assay [2] is more than 100 µM; in assay [3], more than 100 µM; in [4], more than 100 µM; in assay [5] it was 48.2 µM; in assay [6], more than 100 µM; in [7], 81.3 µM. Further, the TGI in assay [8], in [9] and in assay [10] was more than 100 µM in each case.

As to `c1ccc2c(c1)CC1=C(O2)c2ccccc2OC1`, the TGI in assay [1] was 45.5 µM; in assay [3], 86.3 µM; in assay [4], 48.7 µM; in assay [11], 80.1 µM; in assay [5], more than 100 µM; in assay [6] it was more than 100 µM. Also, the TGI was more than 100 µM in assay [7], 42.2 µM in assay [8], 49.5 µM in [9] and more than 100 µM in assay [10].

Take `O=C(O)c1ccccc1/C=N/NC1=NCCN1`: the TGI in assay [1], in [2], in [3], in [4], in assay [11] and in assay [5] was more than 100 µM each time. For the same compound, the TGI in assay [6], in assay [7], in assay [8] and in assay [10] was more than 100 µM each time.

With `O=c1cc(N2CCNCC2)nc2ccccn12`, the TGI in [1], in [3], in [4], in assay [11], in assay [5] and in [6] was more than 100 µM in each case. The TGI in assay [7], in assay [8], in [9] and in [10] was more than 100 µM in each case.

Turning to `Cc1c(C)c(C)n(C2OC(CO)C(O)C(O)C2O)c(=S)c1C#N` (configuration not stated), the TGI in assay [1], in assay [2], in assay [3], in assay [4], in [11] and in assay [5] was more than 100 µM throughout. Further, the TGI in assay [6], in assay [7], in assay [8] and in [10] was more than 100 µM each time.

Regarding `CCCCC(=O)c1ccc2ccccc2c1O`, the TGI in assay [2], in assay [3], in assay [11], in [5], in assay [6] and in assay [7] was more than 100 µM each time. Also, the TGI in assay [8] and in [9] was more than 100 µM each time.

Turning to `O=C1CSSCC(=O)Nc2ccccc2N1`, the TGI in assay [1], in assay [2], in assay [3], in [4], in [11] and in assay [5] was more than 100 µM each time. Further, the TGI in assay [6], in [8], in assay [9] and in assay [10] was more than 100 µM throughout.

Turning to `CC(=O)Oc1cc(Cl)c(C)c2c1[C@H]1CC[C@]3(C)[C@@H](OC(C)=O)CC[C@H]3[C@@H]1CC2`, the TGI in assay [1], in assay [2], in assay [3], in [4], in [11] and in assay [5] was more than 100 µM each time. Also, the TGI in assay [6], in assay [7], in [8] and in [10] was more than 100 µM in each case.

Take `CN1CCN(c2ccc3[nH]c(-c4cc(O)c5c(nc(CO)n5C)c4O)nc3n2)CC1`: the TGI in assay [1] is more than 100 µM; in assay [2], more than 100 µM; in [3], 48.3 µM; in assay [4], more than 100 µM; in assay [11], 48.2 µM; in assay [6] it was more than 100 µM. Further, the TGI in [8], in assay [9] and in assay [10] was more than 100 µM throughout.

Consider `CC(C)(C)C(=O)OCOP(=O)(OCOC(=O)C(C)(C)C)OCC1OC(n2ccc(=O)[nH]c2=O)C(N=[N+]=[N-])C1O` (configuration not stated), for which the TGI in assay [1] amounted to 15.8 µM; in assay [2], 12.1 µM; in assay [3], 15.5 µM; in assay [4] it was 3.25 µM; in assay [11], 31.4 µM; in assay [6], 16.3 µM. The TGI in assay [7] worked out at 14.7 µM; in assay [8] it was 18.2 µM; in assay [9] it was 22.5 µM; in assay [10] it was 14 µM.

As to `CCOC(=O)N(NC(=O)NC(C)C)c1ccccc1`, the TGI in assay [1], in [2], in assay [4], in assay [11], in assay [5] and in assay [6] was more than 100 µM throughout. In addition, the TGI in assay [7], in assay [8], in assay [9] and in assay [10] was more than 100 µM in each case.

On to `Cc1cc(C)c2c(O)c(S(=O)(=O)c3ccc(Cl)cc3)c(=O)oc2c1`, for which the TGI in [1], in [2], in assay [3], in [4], in assay [5] and in assay [6] was more than 100 µM in each case. The TGI in assay [7], in assay [8], in assay [9] and in assay [10] was more than 100 µM in each case.

On to `CN(C)c1ccc(/C=C2/NC(=S)NC2=O)cc1`, for which the TGI in assay [1], in assay [3], in assay [4], in [11], in [6] and in assay [7] was more than 100 µM throughout. Also, the TGI in assay [8], in [9] and in [10] was more than 100 µM throughout.

Turning to `Oc1c2cc(Cl)cc1COCc1cc(Cl)cc(c1O)COCc1cc(Cl)cc(c1O)COC2`, the TGI in assay [2] is more than 100 µM; in assay [3], more than 100 µM; in assay [4], more than 100 µM; in assay [5], more than 100 µM; in [6], 98.6 µM; in assay [7] it was more than 100 µM. For the same compound, the TGI in assay [8] and in [10] was more than 100 µM each time.

On to `Cc1ccc(/C(Cl)=C/C=C(C#N)C#N)cc1`, for which the TGI in assay [2] is more than 100 µM; in [3] it was 6.94 µM; in assay [4] it was 3.91 µM; in assay [11], more than 100 µM; in assay [6], 3.36 µM; in assay [7], more than 100 µM. Further, the TGI in [8] is 3.71 µM; in [9] it was 14.4 µM; in assay [10] it was 56 µM.

As for `CCC(C)(C)C1CCC2c3c([nH]c4ccccc34)C3C(=O)N(c4ccc(OC)cc4)C(=O)C3C2C1` (configuration not stated), the TGI in assay [1] was 68.6 µM; in assay [2], more than 100 µM; in [3], 43.5 µM; in [4] it was 7.28 µM; in assay [11], 60.8 µM; in [6], 35.1 µM. Also, the TGI in assay [7] was 22.6 µM; in assay [8] it was more than 100 µM; in assay [9] it was 22.7 µM; in assay [10], 35.5 µM.

`CC(CCC(=O)O)(c1ccc(O)cc1)c1ccc(O)cc1`: the TGI in assay [1], in [2], in [3], in assay [4], in assay [11] and in assay [5] was more than 100 µM throughout. The TGI in [6], in assay [8], in [9] and in assay [10] was more than 100 µM throughout.

In the case of `CCOC(=O)c1c(NC(=O)c2cccs2)sc2c1CCC2`, the TGI in assay [1], in assay [2], in assay [4], in assay [11], in assay [5] and in assay [6] was more than 100 µM throughout. Besides, the TGI in assay [7], in assay [9] and in assay [10] was more than 100 µM in each case.

In the case of `O=C1c2[nH]c3ccc(Br)cc3c2CCN1Cc1ccc(Cl)cc1`, the TGI is 30.7 µM in [1]; 28.6 µM in assay [3]; 28.5 µM in assay [4]; 34.1 µM in [5]; 32.3 µM in assay [6]; 35.7 µM in [7]. Also, the figures for the TGI in assay [8], in [9] and in [10] were 34.8 µM, 34.4 µM and 26.9 µM, respectively.
